These compounds were tested on parasites (ring stage, in human red blood cell culture) (assay: Parasite LDH growth assay (antiparasite potency, Parasite Assay)). Settings: Plasmodium falciparum, Erythrocyte, 72 h, 0.7% rings, 2% haematocrit, 72 hours at 37° C., LDH readout of parasite growth.
Type: cell-based, Plasmodium falciparum
Procedure, shortened: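 Ring-stage parasites at 0.7% parasitemia and 2% haematocrit, in RPMI-Hepes/bicarbonate with 5% heat-inactivated human serum and 0.5% albumax, were added to compound-containing medium. Cultures grew 72 h at 37 °C in gassed humidified boxes. Plates were then frozen overnight at −80 °C, thawed 4 h, and growth was measured by LDH assay.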
Work on `CC1(C)CC(=O)N([C@@H]2CCOc3ccc(C(=O)N[C@@H]4c5cc(F)ccc5OC(C)(C)[C@H]4O)cc32)C(=N)N1` [Example 189, (4R)-N-[(3S,4R)-6-fluoro-3-hydroxy-2,2-dimethyl-chroman-4-yl]-4-(2-imino-4,4-dimethyl-6-oxo-hexahydropyrimidin-1-yl)chromane-6-carboxamide] yielded an EC50 of 1 nM.
With `CCC1(CC)CC(=O)N([C@@H]2CCOc3ccc(C(=O)N[C@@H]4c5cc(F)ccc5OC[C@H]4O)cc32)C(=N)N1` [Example 191, (4R)-4-(4,4-diethyl-2-imino-6-oxo-hexahydropyrimidin-1-yl)-N-[(3S,4R)-6-fluoro-3-hydroxy-chroman-4-yl]chromane-6-carboxamide] the EC50 was 2.6 nM.
`CCC1(CC)CC(=O)N([C@@H]2CCOc3ccc(C(=O)N[C@H]4c5cc(F)ccc5OC[C@@H]4O)cc32)C(=N)N1` [Example 192, (4R)-4-(4,4-diethyl-2-imino-6-oxo-hexahydropyrimidin-1-yl)-N-[(3R,4S)-6-fluoro-3-hydroxy-chroman-4-yl]chromane-6-carboxamide] was tested, and the EC50 was 232 nM.
In the case of `CCC1(CC)CC(=O)N([C@@H]2CCOc3ccc(C(=O)NC(c4ccccc4)c4ccccc4)cc32)C(=N)N1` [Example 194, (4R)-N-benzhydryl-4-(4,4-diethyl-2-imino-6-oxo-hexahydropyrimidin-1-yl)chromane-6-carboxamide], the EC50 is reported as 0.9 nM.
Work on `CC1(C)CC(=O)N([C@@H]2CCOc3ccc(C(=O)N[C@@H]4c5cc(Cl)ccc5OC[C@@]4(C)O)cc32)C(=N)N1` [Example 195, (4R)-N-[(3S,4R)-6-chloro-3-hydroxy-3-methyl-chroman-4-yl]-4-(2-imino-4,4-dimethyl-6-oxo-hexahydropyrimidin-1-y)chromane-6-carboxamide] yielded an EC50 of 3.5 nM.
Work on `CC[C@]1(C)CC(=O)N([C@@H]2CCOc3ccc(C(=O)N[C@@H]4c5cc(Cl)ccc5OC[C@H]4O)cc32)C(=N)N1` [Example 196, (4R)-N-[(3S,4R)-6-chloro-3-hydroxy-chroman-4-yl]-4-[(4R)-4-ethyl-2-imino-4-methyl-6-oxo-hexahydropyrimidin-1-yl]chromane-6-carboxamide] yielded an EC50 of 8.6 nM.
With `CCC1(CC)CC(=O)N([C@@H]2CCOc3ccc(C(=O)N[C@H]4c5ccccc5C(F)(F)[C@@H]4O)cc32)C(=N)N1` [Example 197, (4R)-4-(4,4-diethyl-2-imino-6-oxo-hexahydropyrimidin-1-yl)-N-[(1S,2R)-3,3-difluoro-2-hydroxy-indan-1-yl]chromane-6-carboxamide] the EC50 was 125 nM.
With `CCC1(CC)CC(=O)N([C@@H]2CCOc3ccc(C(=O)N[C@@H]4c5ccccc5C(F)(F)[C@H]4O)cc32)C(=N)N1` [Example 198, (4R)-4-(4,4-diethyl-2-imino-6-oxo-hexahydropyrimidin-1-yl)-N-[(1R,2S)-3,3-difluoro-2-hydroxy-indan-1-yl]chromane-6-carboxamide] the EC50 was 11.3 nM.
`CC1(C)CC(=O)N([C@@H]2CC(F)(F)c3ccc(C(=O)N[C@@H]4c5ccccc5OC(C)(C)[C@H]4O)cc32)C(=N)N1` [Example 199, (3R)-1,1-difluoro-N-[(3S,4R)-3-hydroxy-2,2-dimethyl-chroman-4-yl]-3-(2-imino-4,4-dimethyl-6-oxo-hexahydropyrimidin-1-yl)indane-5-carboxamide] showed an EC50 of 1.1 nM.
Compound `CCC1(CC)CC(=O)N([C@@H]2CCOc3ccc(C(=O)NC(c4ccccc4)C4CCCCC4)cc32)C(=N)N1` (stereo partly drawn) [Example 200, (4R)-N-[cyclohexyl(phenyl)methyl]-4-(4,4-diethyl-2-imino-6-oxo-hexahydropyrimidin-1-yl)chromane-6-carboxamide] has an EC50 of 2.9 nM.
Compound `CCC1(CC)CC(=O)N([C@@H]2CCCc3ccc(C(=O)N[C@@H]4c5ccccc5OC(C)(C)[C@H]4O)cc32)C(=N)N1` [Example 201, (4R)-4-(4,4-diethyl-2-imino-6-oxo-hexahydropyrimidin-1-yl)-N-[(3S,4R)-3-hydroxy-2,2-dimethyl-chroman-4-yl]tetralin-6-carboxamide] has an EC50 of 1.4 nM.
With `CC[C@]1(C)CC(=O)N([C@H]2c3cc(C(=O)N[C@@H]4c5ccccc5C[C@@]4(C)O)ccc3OC[C@@H]2COC)C(=N)N1` [Example 202, (3S,4R)-4-[(4R)-4-ethyl-2-imino-4-methyl-6-oxo-hexahydropyrimidin-1-yl]-N-[(1R,2R)-2-hydroxy-2-methyl-indan-1-yl]-3-(methoxymethyl)chromane-6-carboxamide] the EC50 was 0.8 nM.
`CCC1(CC)CC(=O)N([C@H]2C[C@@H](OC)c3ccc(C(=O)N[C@@H]4c5ccccc5OC[C@@]4(C)O)cc32)C(=N)N1` [Example 204, (1R,3S)-3-(4,4-diethyl-2-imino-6-oxo-hexahydropyrimidin-1-yl)-N-[(3S,4R)-3-hydroxy-3-methyl-chroman-4-yl]-1-methoxy-indane-5-carboxamide] gave an EC50 of 247 nM.
`CCC1(CC)CC(=O)N([C@@H]2C[C@H](OC)c3ccc(C(=O)N[C@@H]4c5ccccc5OC[C@@]4(C)O)cc32)C(=N)N1` [Example 205, (1S,3R)-3-(4,4-diethyl-2-imino-6-oxo-hexahydropyrimidin-1-yl)-N-[(3S,4R)-3-hydroxy-3-methyl-chroman-4-yl]-1-methoxy-indane-5-carboxamide] showed an EC50 of 2.1 nM.
In the case of `COCC1(C)CC(N2C(=N)NC(C)(C)CC2=O)c2cc(C(=O)N[C@@H]3c4ccccc4C[C@]3(C)O)ccc2O1` (stereo partly drawn) [Example 206, N-[(1R,2S)-2-hydroxy-2-methyl-indan-1-yl]-4-(2-imino-4,4-dimethyl-6-oxo-hexahydropyrimidin-1-yl)-2-(methoxymethyl)-2-methyl-chromane-6-carboxamide], the EC50 is reported as 66 nM.
Compound `CCC1(CC)CC(=O)N(C2c3cc(C(=O)N[C@H]4CC(C)(C)Oc5ccccc54)ccc3OCC2O)C(=N)N1` (stereo partly drawn) [Example 207, 4-(4,4-diethyl-2-imino-6-oxo-hexahydropyrimidin-1-yl)-N-[(4S)-2,2-dimethylchroman-4-yl]-3-hydroxy-chromane-6-carboxamide] has an EC50 of 22 nM.
For `CCC1(CC)CC(=O)N(C2c3cc(C(=O)N[C@@H]4c5ccccc5C[C@H]4O)ccc3OCC2(C)OC)C(=N)N1` (stereo partly drawn) [Example 208, 4-(4,4-diethyl-2-imino-6-oxo-hexahydropyrimidin-1-yl)-N-[(1R,2R)-2-hydroxyindan-1-yl]-3-methoxy-3-methyl-chromane-6-carboxamide], the EC50 was 3.7 nM.
With `CCC1(CC)CC(=O)N(C2CC(C)Oc3ccc(C(=O)N[C@@H]4c5ccccc5OC[C@@]4(C)O)cc32)C(=N)N1` (stereo partly drawn) [Example 209, 4-(4,4-diethyl-2-imino-6-oxo-hexahydropyrimidin-1-yl)-N-[(3S,4R)-3-hydroxy-3-methyl-chroman-4-yl]-2-methyl-chromane-6-carboxamide] the EC50 was 7.9 nM.
Compound `CC[C@]1(C)CC(=O)N(C2CC(C)Oc3ccc(C(=O)N[C@@H]4c5ccccc5OC(C)(C)[C@H]4O)cc32)C(=N)N1` (stereo partly drawn) [Example 210, 4-[(4R)-4-ethyl-2-imino-4-methyl-6-oxo-hexahydropyrimidin-1-yl]-N-[(3S,4R)-3-hydroxy-2,2-dimethyl-chroman-4-yl]-2-methyl-chromane-6-carboxamide] has an EC50 of 195 nM.
With `CCC1(CC)CC(=O)N([C@@H]2CCCOc3ccc(C(=O)N[C@@H]4c5ccccc5OC[C@@]4(C)O)cc32)C(=N)N1` [Example 211, (5R)-5-(4,4-diethyl-2-imino-6-oxo-hexahydropyrimidin-1-yl)-N-[(3S,4R)-3-hydroxy-3-methyl-chroman-4-yl]-2,3,4,5-tetrahydro-1-benzoxepine-7-carboxamide] the EC50 was 8.9 nM.
In the case of `CCC1(CC)CC(=O)N(C2c3cc(C(=O)N[C@@H]4c5ccccc5C[C@@]4(C)O)ccc3OCC2OC)C(=N)N1` (stereo partly drawn) [Example 212, 4-(4,4-diethyl-2-imino-6-oxo-hexahydropyrimidin-1-yl)-N-[(1R,2R)-2-hydroxy-2-methyl-indan-1-yl]-3-methoxy-chromane-6-carboxamide], the EC50 is reported as 6.5 nM.
`CCC1(CC)CC(=O)N(C2c3cc(C(=O)N[C@@H]4c5ccccc5C[C@]4(C)O)ccc3OCC2OC)C(=N)N1` (stereo partly drawn) [Example 213, 4-(4,4-diethyl-2-imino-6-oxo-hexahydropyrimidin-1-yl)-N-[(1R,2S)-2-hydroxy-2-methyl-indan-1-yl]-3-methoxy-chromane-6-carboxamide] showed an EC50 of 9 nM.
`CCC1(CC)CC(=O)N([C@H]2c3cc(C(=O)N[C@@H]4c5ccccc5C[C@H]4O)ccc3OC[C@H]2COC)C(=N)N1` [Example 215, (3R,4R)-4-(4,4-diethyl-2-imino-6-oxo-hexahydropyrimidin-1-yl)-N-[(1R,2R)-2-hydroxyindan-1-yl]-3-(methoxymethyl)chromane-6-carboxamide] was tested, and the EC50 was 4.2 nM.
For `CCC1(CC)CC(=O)N([C@H]2c3cc(C(=O)N[C@@H]4c5ccccc5C[C@H]4O)ccc3OC[C@@H]2COC)C(=N)N1` [Example 216, (3S,4R)-4-(4,4-diethyl-2-imino-6-oxo-hexahydropyrimidin-1-yl)-N-[(1R,2R)-2-hydroxyindan-1-yl]-3-(methoxymethyl)chromane-6-carboxamide], the EC50 was 2.7 nM.
Work on `COC1COc2ccc(C(=O)N[C@@H]3c4ccccc4OC(C)(C)[C@H]3O)cc2C1N1C(=N)NC(C)(C)CC1=O` (stereo partly drawn) [Example 217, N-[(3S,4R)-3-hydroxy-2,2-dimethyl-chroman-4-yl]-4-(2-imino-4,4-dimethyl-6-oxo-hexahydropyrimidin-1-yl)-3-methoxy-chromane-6-carboxamide] yielded an EC50 of 4.9 nM.
`CC[C@]1(C)CC(=O)N(C2c3cc(C(=O)N[C@@H]4c5ccccc5OC[C@@]4(C)O)ccc3OCC2OC)C(=N)N1` (stereo partly drawn) [Example 218, 4-[(4R)-4-ethyl-2-imino-4-methyl-6-oxo-hexahydropyrimidin-1-yl]-N-[(3S,4R)-3-hydroxy-3-methyl-chroman-4-yl]-3-methoxy-chromane-6-carboxamide] gave an EC50 of 64 nM.
`COCC1(C)Oc2ccc(C(=O)N[C@@H]3c4ccccc4OC[C@@]3(C)O)cc2C1N1C(=N)NC(C)(C)CC1=O` (stereo partly drawn) [Example 219, N-[(3S,4R)-3-hydroxy-3-methyl-chroman-4-yl]-3-(2-imino-4,4-dimethyl-6-oxo-hexahydropyrimidin-1-yl)-2-(methoxymethyl)-2-methyl-3H-benzofuran-5-carboxamide] gave an EC50 of 208 nM.
